What is called half-life is how long it takes for the measured level to halve. By AUC(0-t) is commonly meant exposure summed from dosing to a finite time, without extrapolation to infinity. A higher AUC(0-t) goes with high exposure. Broadly, the Cmax is the peak of the concentration-time curve.

SMILES strings stand for the structures. “Also recorded” adds a separate entry of the source. Structures can show the parent of a compound that is named as a salt. Where two headings read alike, the source gives them in different places.

The source of these data is article PMC4834746 (Anesthesiology and Pain Medicine, 2016).

Series [1] is classed as in vivo, rat.
Series [2] can be described thus: AM404 concentration in rat plasma after oral administration of acetaminophen. The class given is in vivo. The conditions noted are these: oral 20 mg/kg acetaminophen, data not shown.
Series [3] is classed as in vivo, rat. As to conditions: for half-life: t1/2, rat plasma.
The mark [4] stands for this setting: male, Crl:CD(SD), rat, brain, po, 20 mg/kg.
[5] abbreviates: male, Crl:CD(SD), rat, plasma, po, 20 mg/kg.
Setting [6] is: male, Crl:CD(SD), rat, plasma, po, 20 mg/kg, oral 20 mg/kg acetaminophen, mean.
Setting [7] is: rat plasma, oral 20 mg/kg acetaminophen, mean, 20 mg/kg.
Where [8] appears, read: rat plasma, oral 20 mg/kg acetaminophen, mean.

For `CCCCC/C=C\C/C=C\C/C=C\C/C=C\CCCC(=O)Nc1ccc(O)cc1` [AM404, N-(4-hydroxyphenyl) arachidonamide], in series [1] (calculated using AUC0-2h, oral 20 mg/kg acetaminophen, rat), the “conversion rate of acetaminophen to AM404” value was 0.0013%. In series [1] (setting [4]), the half-life is 18.3 min and the k el is 0.000631 s⁻¹. This compound registered an AUC0-2h in series [1] (rat brain, oral 20 mg/kg acetaminophen, mean) of 117 pg·h/g. In series [2], the “concentration of AM404 in plasma” value was “undetectable; also recorded: unable to detect”.

As to `CC(=O)Nc1ccc(O)cc1` [APAP, Acetaminophen, reference compound], in series [3] (setting [5]), the AUC(0-t) came out at 8.96 µg·h/mL, the Cmax is 15.8 µg/mL and the k el is 0.000644 s⁻¹. For the same compound, the half-life in series [3] (setting [6]) is 17.9 min.

Turning to `CC(=O)Nc1ccc(O[C@@H]2O[C@H](C(=O)O)[C@@H](O)[C@H](O)[C@H]2O)cc1` [Glu, acetaminophen glucuronide], in series [3] (setting [5]), the AUC(0-t) is 7.99 µg·h/mL, the peak level (Cmax) was 9.3 µg/mL, the k el was 0.000533 s⁻¹ and the tmax is 15 min. Besides, the half-life in series [3] (setting [6]) was 25 min. This compound showed a t1/2 in series [3] (setting [7]) of 21.7 min.

In series [3] (setting [8]), `CC(=O)Nc1ccc(O)c(SC[C@H](NC(C)=O)C(=O)O)c1` [Mer, acetaminophen mercapturate acid] registered an AUC0-2h of 0.167 µg·h/g, a Cmax of 0.154 µg/g, a Kel of 0.890 h⁻¹ and a t1/2 of 46.7 min. In series [3] (setting [8]), this compound registered a tmax of 30 min.

In series [3] (setting [8]), `CC(=O)Nc1ccc(OS(=O)(=O)O)cc1` [Sul, acetaminophen sulfate] returned an AUC0-2h of 22.2 µg·h/g, a Cmax of 21.7 µg/g, a Kel of 1.67 h⁻¹ and a tmax of 15 min. Further, the t1/2 in series [3] (setting [7]) came to 25 min.

In series [3] (setting [8]), `CC(=O)Nc1ccc(O)c(SC[C@H](N)C(=O)O)c1` [Sys, Acetaminophen cysteine] came in with an AUC0-2h of 0.251 µg·h/g, a Cmax of 0.258 µg/g, a Kel of 1.44 h⁻¹ and a t1/2 of 29 min. The same compound returned a tmax in series [3] (setting [8]) of 30 min.
